# Laboratory results published in ChEMBL document CHEMBL1130456, “Nonpeptide glycoprotein IIb/IIIa inhibitors. 13. design and synthesis of an orally active pyrazolopiperazinone nonpeptide fibrinogen receptor antagonist” (Bioorg Med Chem Lett, 1997).
# Several values for one entry are separate records, joined by “and”; a condition that tells them apart may be missing. Equal values may be shown once.
# Tested on: Rhesus monkey
# Assay: Inhibition of platelet aggregation at 6 hr in response to ADP and collagen in conscious rhesus monkey
# Assay type: functional, Cercopithecidae
row,Structure (SMILES),Inhibition [%]
1,CCCCS(=O)(=O)N[C@@H](CNC(=O)c1cc2n(n1)CCN(CCC1CCNCC1)C2=O)C(=O)O,>90

# Tested on: Rhesus monkey
# Assay: Inhibition of platelet aggregation at 24 hr in response to collagen in conscious rhesus monkey
# Assay type: functional, Cercopithecidae
row,Structure (SMILES),Inhibition
1,CCCCS(=O)(=O)N[C@@H](CNC(=O)c1cc2n(n1)CCN(CCC1CCNCC1)C2=O)C(=O)O,86% and 31%

# Organism: Homo sapiens
# Assay: Concentration required for 50% inhibition of platelet aggregation of human gel-filtered platelets(GFP) in platelet aggregation assay
# Assay type: functional
row,Structure (SMILES),IC50 [µM]
1,O=C(NCc1ccccc1)N[C@@H](CNC(=O)c1cc2n(n1)CCN(CCC1CCNCC1)C2=O)C(=O)O,0.022
2,C=CCCS(=O)(=O)N[C@@H](CNC(=O)c1cc2n(n1)CCN(CCC1CCNCC1)C2=O)C(=O)O,0.011
3,CC(=O)N[C@@H](CNC(=O)c1cc2n(n1)CCN(CCC1CCNCC1)C2=O)C(=O)O,0.025

# Continued, values first:
row,IC50 [µM],Structure (SMILES)
1,0.26,C[C@H](CC(=O)O)NC(=O)c1cc2n(n1)CCN(CCC1CCNCC1)C2=O
2,0.12,C#C[C@H](CC(=O)O)NC(=O)c1cc2n(n1)CCN(CCC1CCNCC1)C2=O
3,0.045,N[C@@H](CNC(=O)c1cc2n(n1)CCN(CCC1CCNCC1)C2=O)C(=O)O
4,0.015,CS(=O)(=O)N[C@@H](CNC(=O)c1cc2n(n1)CCN(CCC1CCNCC1)C2=O)C(=O)O
5,0.005,O=C(N[C@@H](CNC(=O)c1cc2n(n1)CCN(CCC1CCNCC1)C2=O)C(=O)O)OCc1ccccc1
